Data reported in patent US6951733B2, “Method for testing drug susceptibility of Mycobacterium tuberculosis” (priority 2000, dated 2005).
In brackets after ≈: the same amount, converted by molar mass. Where two headings read alike, the source gives them in different places.

Assays:
[1] = test system: 13 M. tuberculosis pan-susceptible strains; experiment: MIC determination on HSTB agar, susceptible strains; assay type: cell-based; conditions: for MIC: Mycobacterium tuberculosis, HSTB agar
[2] = test system: 13 M. tuberculosis pan-susceptible strains; conditions: adopted for 7H11 agar; cited from earlier work
[3] = test system: 55 M. tuberculosis clinical isolates; assay type: cell-based
[4] = strains Susceptible by the BACTEC 300 μg/ml
[5] = strains Susceptible by the BACTEC 900 μg/ml

Compound: NNC(=O)c1ccncc1 [INH, isoniazid]
- MIC ([1]; 0.2: 13 strains, read-out: MICs (mcg/ml) of INH for 13 Susceptible Strains, HSTB): 0.2 µg/mL (≈ 1.46 µM)
- MIC ([1]; all 13 strains, read-out: MIC of INH): 0.2 µg/mL

Compound: CO[C@H]1/C=C/O[C@@]2(C)Oc3c(C)c(O)c4c(O)c(c(/C=N/N5CCN(C)CC5)c(O)c4c3C2=O)NC(=O)/C(C)=C\C=C\[C@H](C)[C@H](O)[C@@H](C)[C@@H](O)[C@@H](C)[C@H](OC(C)=O)[C@@H]1C [RMP, rifampin]
- critical concentration of RMP [1]: 2.0 µg/mL
- critical concentration of RMP [2]: 1.0 µg/mL

Compound: NC(=O)c1cnccn1 [PZA, pyrazinamide]
- Number of strains by the agar proportion method, 900 μg/ml Susceptible [3, 4]: 25
- Number of strains by the agar proportion method, 1200 μg/ml Susceptible [3, 4]: 25
- Number of strains by the agar proportion method, 900 μg/ml Susceptible [3, 5]: 26
- Number of strains by the agar proportion method, 1200 μg/ml Susceptible [3, 5]: 27
